Results reported in patent publication US20150105252A1, “SUBSTITUTED PYRAZOLES AS HERBICIDES” (E I DU PONT DE NEMOURS AND COMPANY, priority 2013, published 2015).

What was measured:
galium [1] = experiment: Test D preemergence; assay type: in vivo, Galium aparine; conditions: scale 0 to 100
In short: (§1)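 Visual 0–100 control ratings at 14–21 days in a controlled growth environment. Application preemergence onto silt loam or postemergence onto 2–18 cm seedlings, using a non-phytotoxic solvent formulation with surfactant.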

galium [2] = experiment: Test D postemergence; assay type: in vivo, Galium aparine; conditions: scale 0 to 100
In short: as §1

foxtail, green = experiment: Test D postemergence; assay type: in vivo, Setaria viridis; conditions: scale 0 to 100
In short: as §1

lambsquarters [3] = experiment: Test D postemergence; assay type: in vivo, Chenopodium album; conditions: scale 0 to 100
In short: as §1

wheat, spring = experiment: Test D postemergence; assay type: in vivo, Triticum aestivum; conditions: scale 0 to 100
In short: as §1

wheat, winter = experiment: Test D postemergence; assay type: in vivo, Triticum aestivum; conditions: scale 0 to 100
In short: as §1

buckwheat, wild = experiment: Test D postemergence; assay type: in vivo, Polygonum convolvulus; conditions: scale 0 to 100
In short: as §1

mustard, wild = experiment: Test D postemergence; assay type: in vivo, Sinapis arvensis; conditions: scale 0 to 100
In short: as §1

radish, wild = experiment: Test D postemergence; assay type: in vivo, Raphanus raphanistrum; conditions: scale 0 to 100
In short: as §1

soybean = experiment: Test F preemergence; assay type: in vivo, Glycine max
In short: (§2)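 Planting in silt loam, then preemergence treatment; postemergence treatment in parallel on 1- to 4-leaf seedlings (2–18 cm). Compound carried in a non-phytotoxic solvent mixture with surfactant. Greenhouse, 14–21 days; visual comparison with controls, scored 0 (none) to 100 (full control).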

lambsquarters [4] = experiment: Test F preemergence; assay type: in vivo, Chenopodium album
In short: as §2

wild poinsettia = experiment: Test F preemergence; assay type: in vivo, Euphorbia heterophylla
In short: as §2

barnyardgrass = experiment: Test F preemergence; assay type: in vivo, Echinochloa crus-galli
In short: as §2

Italian ryegrass = experiment: Test F preemergence; assay type: in vivo, Lolium multiflorum
In short: as §2

[5] = Preemergence, 31 g ai/ha, scale 0 to 100
[6] = Preemergence, 62 g ai/ha, scale 0 to 100
[7] = Preemergence, 125 g ai/ha, scale 0 to 100
[8] = preemergence, 8 g ai/ha, scale 0 to 100, 100 is complete control
[9] = preemergence, 16 g ai/ha, scale 0 to 100, 100 is complete control

CCCc1cc(C(=O)NCC(F)(F)F)nn1Cc1ccnc(C(F)(F)F)c1 [Compound 105]
Plant response rating, Galium (galium [1]; 31 g ai/ha): 100 | Plant response rating, Galium (galium [1]; 62 g ai/ha): 100 | Plant response rating, Galium (galium [1]; 125 g ai/ha): 100 | Plant response rating, Galium (galium [1]; 250 g ai/ha): 100 | Galium plant response rating (galium [2]; Postemergence, 31 g ai/ha): 70 | Galium plant response rating (galium [2]; Postemergence, 125 g ai/ha): 80 | Galium plant response rating (galium [2]; Postemergence, 250 g ai/ha): 85 | Galium plant response rating (galium [2]; postemergence, 62 g ai/ha): 75 | Foxtail, Green plant response rating (foxtail, green; Postemergence, 31 g ai/ha): 10 | Foxtail, Green plant response rating (foxtail, green; Postemergence, 125 g ai/ha): 70 | Foxtail, Green plant response rating (foxtail, green; Postemergence, 250 g ai/ha): 80 | Foxtail, Green plant response rating (foxtail, green; postemergence, 62 g ai/ha): 65 | Lambsquarters plant response rating (lambsquarters [3]; Postemergence, 31 g ai/ha): 40 | Lambsquarters plant response rating (lambsquarters [3]; Postemergence, 125 g ai/ha): 70 | Lambsquarters plant response rating (lambsquarters [3]; Postemergence, 250 g ai/ha): 80 | Lambsquarters plant response rating (lambsquarters [3]; postemergence, 62 g ai/ha): 65 | Wheat, Spring plant response rating (wheat, spring; Postemergence, 31 g ai/ha): 5 | Wheat, Spring plant response rating (wheat, spring; Postemergence, 125 g ai/ha): 20 | Wheat, Spring plant response rating (wheat, spring; Postemergence, 250 g ai/ha): 40 | Wheat, Spring plant response rating (wheat, spring; postemergence, 62 g ai/ha): 10 | Wheat, Winter plant response rating (wheat, winter; Postemergence, 31 g ai/ha): 10 | Wheat, Winter plant response rating (wheat, winter; Postemergence, 125 g ai/ha): 40 | Wheat, Winter plant response rating (wheat, winter; Postemergence, 250 g ai/ha): 70 | Wheat, Winter plant response rating (wheat, winter; postemergence, 62 g ai/ha): 15 | Buckwheat, Wild plant response rating (buckwheat, wild; Postemergence, 31 g ai/ha): 55 | Buckwheat, Wild plant response rating (buckwheat, wild; Postemergence, 125 g ai/ha): 70 | Buckwheat, Wild plant response rating (buckwheat, wild; Postemergence, 250 g ai/ha): 80 | Buckwheat, Wild plant response rating (buckwheat, wild; postemergence, 62 g ai/ha): 65 | Mustard, Wild plant response rating (mustard, wild; Postemergence, 31 g ai/ha): 70 | Mustard, Wild plant response rating (mustard, wild; Postemergence, 125 g ai/ha): 85 | Mustard, Wild plant response rating (mustard, wild; Postemergence, 250 g ai/ha): 90 | Mustard, Wild plant response rating (mustard, wild; postemergence, 62 g ai/ha): 60 | Radish, Wild plant response rating (radish, wild; Postemergence, 31 g ai/ha): 35 | Radish, Wild plant response rating (radish, wild; Postemergence, 125 g ai/ha): 70 | Radish, Wild plant response rating (radish, wild; Postemergence, 250 g ai/ha): 80 | Radish, Wild plant response rating (radish, wild; postemergence, 62 g ai/ha): 55 | Plant response rating, Soybean (soybean; [5]): 100 | Plant response rating, Soybean (soybean; [6]): 80 | Plant response rating, Soybean (soybean; [7]): 100 | Plant response rating, Soybean (soybean; [8]): 0 | Plant response rating, Soybean (soybean; [9]): 0 | Plant response rating, Lambsquarters (lambsquarters [4]; [5]): 100 | Plant response rating, Lambsquarters (lambsquarters [4]; [6]): 100 | Plant response rating, Lambsquarters (lambsquarters [4]; [7]): 100 | Plant response rating, Lambsquarters (lambsquarters [4]; [8]): 35 | Plant response rating, Lambsquarters (lambsquarters [4]; [9]): 35 | Plant response rating, Wild Poinsettia (wild poinsettia; [5]): 5 | Plant response rating, Wild Poinsettia (wild poinsettia; [6]): 60 | Plant response rating, Wild Poinsettia (wild poinsettia; [7]): 95 | Plant response rating, Wild Poinsettia (wild poinsettia; [8]): 0 | Plant response rating, Wild Poinsettia (wild poinsettia; [9]): 0 | Plant response rating, Barnyardgrass (barnyardgrass; [5]): 30 | Plant response rating, Barnyardgrass (barnyardgrass; [6]): 98 | Plant response rating, Barnyardgrass (barnyardgrass; [7]): 98 | Plant response rating, Barnyardgrass (barnyardgrass; [8]): 0 | Plant response rating, Barnyardgrass (barnyardgrass; [9]): 5 | Plant response rating, Italian Ryegrass (Italian ryegrass; [5]): 50 | Plant response rating, Italian Ryegrass (Italian ryegrass; [6]): 60 | Plant response rating, Italian Ryegrass (Italian ryegrass; [7]): 80 | Plant response rating, Italian Ryegrass (Italian ryegrass; [8]): 0 | Plant response rating, Italian Ryegrass (Italian ryegrass; [9]): 0

CCOc1cc(C(=O)NC(C)C)nn1Cc1ccnc(C(F)(F)F)c1 [Compound 188]
Plant response rating, Galium (galium [1]; 62 g ai/ha): 95 | Plant response rating, Galium (galium [1]; 125 g ai/ha): 100 | Plant response rating, Galium (galium [1]; 250 g ai/ha): 100 | Galium plant response rating (galium [2]; Postemergence, 31 g ai/ha): 75 | Galium plant response rating (galium [2]; Postemergence, 125 g ai/ha): 85 | Galium plant response rating (galium [2]; Postemergence, 250 g ai/ha): 90 | Galium plant response rating (galium [2]; postemergence, 62 g ai/ha): 75 | Foxtail, Green plant response rating (foxtail, green; Postemergence, 31 g ai/ha): 25 | Foxtail, Green plant response rating (foxtail, green; Postemergence, 125 g ai/ha): 25 | Foxtail, Green plant response rating (foxtail, green; Postemergence, 250 g ai/ha): 55 | Foxtail, Green plant response rating (foxtail, green; postemergence, 62 g ai/ha): 25 | Lambsquarters plant response rating (lambsquarters [3]; Postemergence, 31 g ai/ha): 70 | Lambsquarters plant response rating (lambsquarters [3]; Postemergence, 125 g ai/ha): 80 | Lambsquarters plant response rating (lambsquarters [3]; Postemergence, 250 g ai/ha): 90 | Lambsquarters plant response rating (lambsquarters [3]; postemergence, 62 g ai/ha): 70 | Wheat, Spring plant response rating (wheat, spring; Postemergence, 31 g ai/ha): 10 | Wheat, Spring plant response rating (wheat, spring; Postemergence, 125 g ai/ha): 15 | Wheat, Spring plant response rating (wheat, spring; Postemergence, 250 g ai/ha): 40 | Wheat, Spring plant response rating (wheat, spring; postemergence, 62 g ai/ha): 10 | Wheat, Winter plant response rating (wheat, winter; Postemergence, 31 g ai/ha): 25 | Wheat, Winter plant response rating (wheat, winter; Postemergence, 125 g ai/ha): 30 | Wheat, Winter plant response rating (wheat, winter; Postemergence, 250 g ai/ha): 65 | Wheat, Winter plant response rating (wheat, winter; postemergence, 62 g ai/ha): 25 | Buckwheat, Wild plant response rating (buckwheat, wild; Postemergence, 31 g ai/ha): 60 | Buckwheat, Wild plant response rating (buckwheat, wild; Postemergence, 125 g ai/ha): 70 | Buckwheat, Wild plant response rating (buckwheat, wild; Postemergence, 250 g ai/ha): 70 | Buckwheat, Wild plant response rating (buckwheat, wild; postemergence, 62 g ai/ha): 60 | Mustard, Wild plant response rating (mustard, wild; Postemergence, 31 g ai/ha): 50 | Mustard, Wild plant response rating (mustard, wild; Postemergence, 125 g ai/ha): 60 | Mustard, Wild plant response rating (mustard, wild; Postemergence, 250 g ai/ha): 85 | Mustard, Wild plant response rating (mustard, wild; postemergence, 62 g ai/ha): 50 | Radish, Wild plant response rating (radish, wild; Postemergence, 31 g ai/ha): 70 | Radish, Wild plant response rating (radish, wild; Postemergence, 125 g ai/ha): 70 | Radish, Wild plant response rating (radish, wild; Postemergence, 250 g ai/ha): 90 | Radish, Wild plant response rating (radish, wild; postemergence, 62 g ai/ha): 70 | Plant response rating, Soybean (soybean; [6]): 30 | Plant response rating, Soybean (soybean; [7]): 85 | Plant response rating, Soybean (soybean; [8]): 0 | Plant response rating, Lambsquarters (lambsquarters [4]; [6]): 100 | Plant response rating, Lambsquarters (lambsquarters [4]; [7]): 100 | Plant response rating, Lambsquarters (lambsquarters [4]; [8]): 50 | Plant response rating, Wild Poinsettia (wild poinsettia; [6]): 100 | Plant response rating, Wild Poinsettia (wild poinsettia; [7]): 100 | Plant response rating, Wild Poinsettia (wild poinsettia; [8]): 10 | Plant response rating, Barnyardgrass (barnyardgrass; Preemergence, 16 g ai/ha, scale 0 to 100): 25 | Plant response rating, Barnyardgrass (barnyardgrass; [6]): 80 | Plant response rating, Barnyardgrass (barnyardgrass; [7]): 100 | Plant response rating, Barnyardgrass (barnyardgrass; [8]): 0 | Plant response rating, Italian Ryegrass (Italian ryegrass; [6]): 70 | Plant response rating, Italian Ryegrass (Italian ryegrass; [7]): 80 | Plant response rating, Italian Ryegrass (Italian ryegrass; [8]): 0
